{"source": "paper PMC11864979", "about": "“First-in-class ultralong-target-residence-time p38α inhibitors as a mitosis-targeted therapy for colorectal cancer” (Nature Cancer, 2025)", "assay_in_all_cases": "selectivity profiling in a panel of 340 wild-type kinases (Reaction Biology Europe)", "assay_type_in_all_cases": "binding", "key": {"340 wild-type kinases [1]": {"biological_target": "T1, 340 wild-type kinases (Homo sapiens, UniProt P08922)", "T1 construct": "purchased Reaction Biology Europe", "T1 sequence (P08922 28-2347)": "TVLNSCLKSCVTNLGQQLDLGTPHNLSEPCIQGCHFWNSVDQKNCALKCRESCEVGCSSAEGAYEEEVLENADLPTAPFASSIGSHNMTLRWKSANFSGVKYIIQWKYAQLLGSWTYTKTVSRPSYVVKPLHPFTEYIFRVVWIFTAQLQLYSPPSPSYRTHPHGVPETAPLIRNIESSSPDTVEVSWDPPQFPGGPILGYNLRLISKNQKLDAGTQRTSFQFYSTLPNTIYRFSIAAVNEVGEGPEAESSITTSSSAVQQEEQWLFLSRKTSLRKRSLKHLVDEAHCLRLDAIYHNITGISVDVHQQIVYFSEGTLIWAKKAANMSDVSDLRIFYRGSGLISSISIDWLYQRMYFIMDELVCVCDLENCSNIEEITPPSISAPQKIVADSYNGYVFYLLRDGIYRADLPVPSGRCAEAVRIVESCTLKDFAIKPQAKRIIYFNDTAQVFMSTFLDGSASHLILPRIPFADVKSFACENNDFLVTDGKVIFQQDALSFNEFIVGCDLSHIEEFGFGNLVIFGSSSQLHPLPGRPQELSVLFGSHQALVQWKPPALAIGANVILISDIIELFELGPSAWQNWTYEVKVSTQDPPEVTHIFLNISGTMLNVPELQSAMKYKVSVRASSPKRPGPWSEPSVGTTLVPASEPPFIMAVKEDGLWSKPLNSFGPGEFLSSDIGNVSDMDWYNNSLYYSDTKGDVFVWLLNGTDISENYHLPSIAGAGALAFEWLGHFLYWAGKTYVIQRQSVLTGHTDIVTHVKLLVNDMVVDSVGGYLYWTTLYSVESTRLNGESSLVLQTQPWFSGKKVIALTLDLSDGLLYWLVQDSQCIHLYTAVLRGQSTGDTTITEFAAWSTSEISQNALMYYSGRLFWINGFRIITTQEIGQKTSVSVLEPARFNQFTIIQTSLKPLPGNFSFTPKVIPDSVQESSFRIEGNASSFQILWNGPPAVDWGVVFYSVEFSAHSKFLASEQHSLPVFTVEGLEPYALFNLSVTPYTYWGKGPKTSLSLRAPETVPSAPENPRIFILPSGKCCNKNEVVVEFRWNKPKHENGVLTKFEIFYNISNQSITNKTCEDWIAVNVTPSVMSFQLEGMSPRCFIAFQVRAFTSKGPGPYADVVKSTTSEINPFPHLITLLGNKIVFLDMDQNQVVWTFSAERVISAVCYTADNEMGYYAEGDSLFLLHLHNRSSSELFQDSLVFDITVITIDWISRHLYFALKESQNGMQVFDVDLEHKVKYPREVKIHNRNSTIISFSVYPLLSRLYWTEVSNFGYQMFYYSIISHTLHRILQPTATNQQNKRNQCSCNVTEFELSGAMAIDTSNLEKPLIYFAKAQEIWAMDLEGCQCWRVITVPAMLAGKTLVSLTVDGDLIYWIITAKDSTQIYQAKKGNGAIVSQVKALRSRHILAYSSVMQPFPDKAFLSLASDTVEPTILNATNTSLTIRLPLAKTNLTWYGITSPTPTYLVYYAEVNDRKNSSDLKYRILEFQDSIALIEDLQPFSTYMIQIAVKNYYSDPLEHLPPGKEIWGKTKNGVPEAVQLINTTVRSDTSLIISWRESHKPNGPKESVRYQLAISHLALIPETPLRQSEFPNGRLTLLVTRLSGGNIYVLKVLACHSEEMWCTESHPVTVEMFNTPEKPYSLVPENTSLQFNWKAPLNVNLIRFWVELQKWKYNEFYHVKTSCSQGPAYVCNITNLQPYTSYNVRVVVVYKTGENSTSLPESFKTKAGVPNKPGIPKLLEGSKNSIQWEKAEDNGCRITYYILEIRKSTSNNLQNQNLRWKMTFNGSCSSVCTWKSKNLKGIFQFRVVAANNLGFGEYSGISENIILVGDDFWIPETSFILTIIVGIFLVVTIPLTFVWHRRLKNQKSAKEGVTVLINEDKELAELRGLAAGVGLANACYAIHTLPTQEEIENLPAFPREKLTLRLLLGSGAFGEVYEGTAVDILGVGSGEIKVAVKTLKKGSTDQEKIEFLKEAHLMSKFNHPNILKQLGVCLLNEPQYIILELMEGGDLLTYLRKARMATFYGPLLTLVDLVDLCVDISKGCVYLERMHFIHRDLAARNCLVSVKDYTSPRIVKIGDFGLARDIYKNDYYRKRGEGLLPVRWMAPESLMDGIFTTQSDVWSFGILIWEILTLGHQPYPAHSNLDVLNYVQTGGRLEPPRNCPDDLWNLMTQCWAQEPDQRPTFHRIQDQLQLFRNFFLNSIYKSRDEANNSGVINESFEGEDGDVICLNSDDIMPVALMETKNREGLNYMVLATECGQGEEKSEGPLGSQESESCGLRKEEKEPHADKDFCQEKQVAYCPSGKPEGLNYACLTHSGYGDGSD"}, "340 wild-type kinases [2]": {"biological_target": "T2, 340 wild-type kinases (Homo sapiens, UniProt P36897)", "T2 construct": "purchased Reaction Biology Europe", "T2 sequence (P36897 34-503)": "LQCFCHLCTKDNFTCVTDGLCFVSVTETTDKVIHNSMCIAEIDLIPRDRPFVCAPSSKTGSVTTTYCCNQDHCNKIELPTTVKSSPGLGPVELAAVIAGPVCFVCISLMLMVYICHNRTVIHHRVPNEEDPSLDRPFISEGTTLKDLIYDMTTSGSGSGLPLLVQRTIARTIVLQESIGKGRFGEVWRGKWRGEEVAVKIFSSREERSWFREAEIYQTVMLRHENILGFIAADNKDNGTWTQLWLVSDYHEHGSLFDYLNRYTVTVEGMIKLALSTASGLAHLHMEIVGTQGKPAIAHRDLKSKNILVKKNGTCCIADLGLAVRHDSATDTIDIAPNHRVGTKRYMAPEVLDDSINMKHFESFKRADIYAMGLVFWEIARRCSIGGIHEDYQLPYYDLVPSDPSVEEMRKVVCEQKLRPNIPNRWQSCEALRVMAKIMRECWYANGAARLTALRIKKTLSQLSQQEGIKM"}, "340 wild-type kinases [3]": {"biological_target": "T3, 340 wild-type kinases (Homo sapiens, UniProt O00444)", "T3 construct": "purchased Reaction Biology Europe", "T3 sequence (O00444 1-970)": "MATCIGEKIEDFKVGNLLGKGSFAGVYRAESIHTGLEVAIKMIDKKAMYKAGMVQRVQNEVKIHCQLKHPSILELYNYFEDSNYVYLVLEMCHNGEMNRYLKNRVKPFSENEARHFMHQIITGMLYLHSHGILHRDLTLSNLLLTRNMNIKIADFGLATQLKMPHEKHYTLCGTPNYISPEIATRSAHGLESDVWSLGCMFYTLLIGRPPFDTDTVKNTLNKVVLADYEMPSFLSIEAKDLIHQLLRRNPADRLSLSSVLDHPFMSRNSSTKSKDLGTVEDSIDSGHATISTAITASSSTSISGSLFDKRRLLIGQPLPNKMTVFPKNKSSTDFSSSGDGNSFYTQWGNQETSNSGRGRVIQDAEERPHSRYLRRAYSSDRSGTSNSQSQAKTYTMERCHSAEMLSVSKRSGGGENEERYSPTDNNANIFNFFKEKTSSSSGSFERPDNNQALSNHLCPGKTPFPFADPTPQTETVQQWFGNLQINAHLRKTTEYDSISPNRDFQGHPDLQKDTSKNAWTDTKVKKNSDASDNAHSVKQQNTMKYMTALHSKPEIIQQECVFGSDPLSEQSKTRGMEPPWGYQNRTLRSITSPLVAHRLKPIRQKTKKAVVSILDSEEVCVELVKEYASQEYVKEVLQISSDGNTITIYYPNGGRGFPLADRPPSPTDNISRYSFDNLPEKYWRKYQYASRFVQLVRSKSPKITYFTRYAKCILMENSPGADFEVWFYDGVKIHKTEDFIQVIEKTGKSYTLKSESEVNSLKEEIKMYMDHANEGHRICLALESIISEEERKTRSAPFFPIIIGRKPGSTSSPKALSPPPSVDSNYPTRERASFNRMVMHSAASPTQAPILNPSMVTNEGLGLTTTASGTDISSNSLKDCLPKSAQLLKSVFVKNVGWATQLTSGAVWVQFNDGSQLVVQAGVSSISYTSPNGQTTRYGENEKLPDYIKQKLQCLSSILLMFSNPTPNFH"}, "340 wild-type kinases [4]": {"biological_target": "T4, 340 wild-type kinases (Homo sapiens, UniProt Q86Z02)", "T4 construct": "purchased Reaction Biology Europe", "T4 sequence (Q86Z02 whole entry)": "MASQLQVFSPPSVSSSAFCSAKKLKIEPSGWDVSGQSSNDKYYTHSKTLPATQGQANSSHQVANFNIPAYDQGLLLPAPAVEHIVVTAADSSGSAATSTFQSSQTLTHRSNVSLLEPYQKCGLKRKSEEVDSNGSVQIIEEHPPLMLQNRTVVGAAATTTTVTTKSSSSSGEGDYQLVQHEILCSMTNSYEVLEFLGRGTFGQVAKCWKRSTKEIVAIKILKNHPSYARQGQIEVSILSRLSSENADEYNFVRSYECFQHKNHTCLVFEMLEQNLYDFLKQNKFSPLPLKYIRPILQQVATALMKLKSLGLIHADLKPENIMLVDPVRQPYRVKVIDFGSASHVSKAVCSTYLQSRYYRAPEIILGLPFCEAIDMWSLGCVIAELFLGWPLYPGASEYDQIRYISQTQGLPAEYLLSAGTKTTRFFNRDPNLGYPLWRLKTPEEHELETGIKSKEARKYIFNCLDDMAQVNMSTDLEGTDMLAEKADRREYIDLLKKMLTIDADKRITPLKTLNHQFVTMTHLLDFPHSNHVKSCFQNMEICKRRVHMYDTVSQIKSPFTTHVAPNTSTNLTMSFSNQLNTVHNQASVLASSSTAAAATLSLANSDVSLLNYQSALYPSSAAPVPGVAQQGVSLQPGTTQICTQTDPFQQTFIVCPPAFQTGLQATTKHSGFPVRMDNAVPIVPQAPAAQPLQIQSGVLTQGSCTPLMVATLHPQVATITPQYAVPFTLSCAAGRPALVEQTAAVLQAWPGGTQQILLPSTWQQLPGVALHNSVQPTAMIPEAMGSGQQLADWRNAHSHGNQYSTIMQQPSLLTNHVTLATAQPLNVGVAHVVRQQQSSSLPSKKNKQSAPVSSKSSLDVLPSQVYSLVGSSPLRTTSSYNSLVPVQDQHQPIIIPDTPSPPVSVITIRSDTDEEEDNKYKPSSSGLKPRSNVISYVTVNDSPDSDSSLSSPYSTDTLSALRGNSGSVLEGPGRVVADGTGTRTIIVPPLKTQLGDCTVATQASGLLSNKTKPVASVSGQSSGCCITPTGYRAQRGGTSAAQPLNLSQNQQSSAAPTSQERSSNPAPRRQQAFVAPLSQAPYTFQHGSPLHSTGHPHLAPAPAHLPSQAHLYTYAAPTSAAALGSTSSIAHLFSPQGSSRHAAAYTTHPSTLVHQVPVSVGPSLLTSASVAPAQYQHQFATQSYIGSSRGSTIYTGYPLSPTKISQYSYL"}, "340 wild-type kinases [5]": {"biological_target": "T5, 340 wild-type kinases (Homo sapiens, UniProt P54753)", "T5 construct": "purchased Reaction Biology Europe", "T5 sequence (P54753 34-998)": "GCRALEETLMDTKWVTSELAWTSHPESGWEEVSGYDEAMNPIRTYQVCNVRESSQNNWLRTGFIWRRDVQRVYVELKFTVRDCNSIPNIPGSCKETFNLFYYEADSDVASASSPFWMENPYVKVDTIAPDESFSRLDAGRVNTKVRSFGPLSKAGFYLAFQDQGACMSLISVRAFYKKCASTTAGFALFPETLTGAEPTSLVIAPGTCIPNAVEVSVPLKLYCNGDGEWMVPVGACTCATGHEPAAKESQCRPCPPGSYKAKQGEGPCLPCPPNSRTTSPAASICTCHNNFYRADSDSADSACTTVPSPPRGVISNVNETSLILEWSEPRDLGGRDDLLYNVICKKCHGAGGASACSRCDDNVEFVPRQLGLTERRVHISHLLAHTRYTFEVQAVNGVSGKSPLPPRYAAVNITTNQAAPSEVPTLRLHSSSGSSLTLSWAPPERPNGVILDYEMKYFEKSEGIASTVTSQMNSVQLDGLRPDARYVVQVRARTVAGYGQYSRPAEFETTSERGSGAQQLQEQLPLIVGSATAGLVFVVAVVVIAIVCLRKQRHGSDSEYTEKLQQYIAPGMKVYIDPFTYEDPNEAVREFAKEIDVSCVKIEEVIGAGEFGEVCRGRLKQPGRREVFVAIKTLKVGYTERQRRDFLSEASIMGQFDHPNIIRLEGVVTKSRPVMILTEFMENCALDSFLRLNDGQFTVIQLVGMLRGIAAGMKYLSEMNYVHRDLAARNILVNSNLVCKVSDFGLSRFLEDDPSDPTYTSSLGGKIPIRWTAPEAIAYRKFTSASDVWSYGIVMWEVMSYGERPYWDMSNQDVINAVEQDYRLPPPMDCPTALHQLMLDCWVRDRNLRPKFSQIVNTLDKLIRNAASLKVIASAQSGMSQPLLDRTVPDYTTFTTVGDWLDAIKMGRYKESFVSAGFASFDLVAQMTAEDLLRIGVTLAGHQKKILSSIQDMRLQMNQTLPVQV"}}, "note": "Where two headings read alike, the source gives them in different places."}
{"compound": "CNC(=O)c1ccc2c(c1)C(=O)c1ccc(Nc3ccc(F)c(NC(=O)C4CC4)c3)cc1CC2", "note": "[Compound 2015]", "values": [{"measurement": "remaining activity at 0.2 µM", "setting": "340 wild-type kinases [1]; 0.2 µM 2015, read-out: ROS residual activity", "value": 114, "unit": "%"}, {"measurement": "remaining activity at 1 µM", "setting": "340 wild-type kinases [1]; 1 µM 2015, read-out: ROS residual activity", "value": 94.6, "unit": "%"}, {"measurement": "remaining activity at 0.2 µM", "setting": "340 wild-type kinases [1]; ROS, 0.2 µM, read-out: residual activity", "value": 114, "unit": "%"}, {"measurement": "remaining activity at 1 µM", "setting": "340 wild-type kinases [1]; ROS, 1 µM, read-out: residual activity", "value": 94.6, "unit": "%"}, {"measurement": "remaining activity at 0.2 µM", "setting": "340 wild-type kinases [2]; 0.2 µM 2015, read-out: TGFBR1 residual activity", "value": 84.1, "unit": "%"}, {"measurement": "remaining activity at 1 µM", "setting": "340 wild-type kinases [2]; 1 µM 2015, read-out: TGFBR1 residual activity", "value": 90.9, "unit": "%"}, {"measurement": "remaining activity at 0.2 µM", "setting": "340 wild-type kinases [2]; TGFBR1, 0.2 µM, read-out: residual activity", "value": 84.1, "unit": "%"}, {"measurement": "remaining activity at 1 µM", "setting": "340 wild-type kinases [2]; TGFBR1, 1 µM, read-out: residual activity", "value": 90.9, "unit": "%"}, {"measurement": "remaining activity at 0.2 µM", "setting": "340 wild-type kinases [3]; 0.2 µM 2015, read-out: SAK residual activity", "value": 103, "unit": "%"}, {"measurement": "remaining activity at 1 µM", "setting": "340 wild-type kinases [3]; 1 µM 2015, read-out: SAK residual activity", "value": 104, "unit": "%"}, {"measurement": "remaining activity at 0.2 µM", "setting": "340 wild-type kinases [3]; SAK, 0.2 µM, read-out: residual activity", "value": 103, "unit": "%"}, {"measurement": "remaining activity at 1 µM", "setting": "340 wild-type kinases [3]; SAK, 1 µM, read-out: residual activity", "value": 104, "unit": "%"}, {"measurement": "remaining activity at 0.2 µM", "setting": "340 wild-type kinases [4]; 0.2 µM 2015, read-out: HIPK1 residual activity", "value": 98.9, "unit": "%"}, {"measurement": "remaining activity at 1 µM", "setting": "340 wild-type kinases [4]; 1 µM 2015, read-out: HIPK1 residual activity", "value": 102, "unit": "%"}, {"measurement": "remaining activity at 0.2 µM", "setting": "340 wild-type kinases [4]; HIPK1, 0.2 µM, read-out: residual activity", "value": 98.9, "unit": "%"}, {"measurement": "remaining activity at 1 µM", "setting": "340 wild-type kinases [4]; HIPK1, 1 µM, read-out: residual activity", "value": 102, "unit": "%"}, {"measurement": "remaining activity at 0.2 µM", "setting": "340 wild-type kinases [5]; 0.2 µM 2015, read-out: EPHB3 residual activity", "value": 97.2, "unit": "%"}, {"measurement": "remaining activity at 1 µM", "setting": "340 wild-type kinases [5]; 1 µM 2015, read-out: EPHB3 residual activity", "value": 96.8, "unit": "%"}, {"measurement": "remaining activity at 0.2 µM", "setting": "340 wild-type kinases [5]; EPHB3, 0.2 µM, read-out: residual activity", "value": 97.2, "unit": "%"}, {"measurement": "remaining activity at 1 µM", "setting": "340 wild-type kinases [5]; EPHB3, 1 µM, read-out: residual activity", "value": 96.8, "unit": "%"}]}
